Measured values published in paper PMC12375970, “Probing the extent of importin‐α targeting of the TAF8 NLS by eliminating its cationic net‐charge” (Protein Science : A Publication of the Protein Society, 2025).
Ends that are not written are not given here.

Columns and labels:
mImpα2 [1] = molecular target: T1, mImpα2 (Mus musculus, UniProt P52293); experiment: Microscale thermophoresis (MST); format: binding; settings: for Kd: RED-NHS-labelled mImpα2 60 nM, NLS 250 μM–7.6 nM, 20 mM Tris–HCl, 127 mM NaCl, pH 8.0, 0.5% Tween-20, mean ± SD of three experiments, read-out: KD, 1-binding site fitted model; for Hill Coeff.: Hill equation fit, mean ± SD of three experiments
T1 construct: MImpα2, residues 70–529, was co‐crystallized with each NLS analog; His-tag; made in house; host or cells: Escherichia coli BL21 (DE3)
Procedure: Microscale thermophoresis (MST) experiments were conducted using the Monolith NT.115 (Nanotemper, Germany). The RED‐NHS 2nd generation Nanotemper labeling kit (MO‐L011) was used to label mImpα2 in 20 mM Tris–HCl and 127 mM NaCl at pH 8.0. Ten microliter of RED‐NHS‐reacted mImpα2 at 60 nM was titrated against a serial 1:1 dilution (250 μM–7.6 nM) of 10 μL of NLS containing 0.5% Tween‐20, and the mixture was pipetted into 16 MST capillaries contained in a single cartridge. The samples were processed using default settings and followed the manufacturer's protocol. The binding model fits are detailed in Data S1.
A two-binding site and Hill fitting model were also performed by using the following equation in GraphPad. The experiments were repeated three times and the calculated affinity values were reported as the mean equilibrium KD ± standard deviation.
One binding site equation [11]:
Y= Et+Lt+KD- (Et+Lt+KD)2- 4EtLt2Et
Where Lt is the total ligand concentration; protein concentration is Et; KD is the dissociation constant or binding affinity.
Two binding site equation [11]: […]
Where KD1and KD2are the dissociation constants for binding site 1 and 2.
Where L is known, and cooperativity is explicitly reported as the Hill coefficient (n) […].

mImpα2 [2] = molecular target: T1, mImpα2; experiment: Apparent NLS–mImpα2 complex stability monitored by CD (thermal denaturation); format: binding; settings: for T°: CD thermal denaturation of mImpα2 in the presence of the ligand (mImpα2 alone 36.35); for ∆H°u (T°): CD thermal denaturation of mImpα2 with ligand, Van't Hoff method; for ΔG°u (25°C) / ΔG°u (37°C) / ΔΔG°u (25°C) / ΔΔG°u (37°C): CD; for ΔG°u (25°C) / ΔG°u (37°C): mImpα2 with ligand; for ΔΔG°u (25°C) / ΔΔG°u (37°C): relative to mImpα2 alone
Procedure: In the presence of TAF8 NLS, mImpα2 was stabilized, evidenced by the increase in temperature denaturation, shift in stability curves, and the reduction of the unfolded state (Figures S5a–c and 5a). The analogs also stabilized mImpα2, albeit to a lesser extent than TAF8 NLS.
CD measurements were conducted as previously described, including the determination of free energy using the Van't Hoff method (Jean‐Francois et al. [2003]). Fitting details are in Data S1.

Hela cells = experiment: Fluorescence microscopy of nuclear localization of EGFP-NLS constructs, Hela; format: cell-based; settings: Hela cells transfected with pCIneoEGFP constructs (EGFP fusions), 24 h post-transfection
Procedure: The plasmids, cloning, and cell culture transfection methods are described in Data S1. Cells were fixed with 3% paraformaldehyde (Electron Microscopy Sciences, Cat#15710) for 15 min at room temperature; then rinsed thoroughly with PBS. Nuclear staining was performed using 1 μg/mL DAPI (Sigma, Cat#D9542) in PBS. Following staining, cells were rinsed again with PBS and mounted with glass coverslips using Vectashield Antifade Mounting Medium (Vector Laboratories, Cat#H‐1000).
Fluorescence imaging was performed using a Zeiss AxioImager.M2 microscope (RRID:SCR_024706) equipped with a 40× EC Plan‐NeoFluar (1.3 NA; oil) objective, X‐Cite XYLIS LED illumination system, and a Zeiss AxioCam mRm CCD monochrome camera. Image acquisition and initial processing were performed using ZEN Blue software (RRID:SCR_013672), and additional analyses were performed using Fiji (ImageJ; RRID:SCR_002285). For each experimental condition, 15 randomly selected fields of view were imaged. Line overlay fluorescence intensity was quantified using the line profile tool in Fiji. A straight line across the entire cell length was drawn and centered on the nucleus. The “Plot Profile” function was used to extract pixel intensity values along the line. Three cells were analyzed per condition, and the data were presented as mean fluorescence intensity values. […]

[3] = Solubility of the synthesized peptides in water; settings: synthesized peptide
importin‐α = settings: 1:1 stoichiometry; ref Trowitzsch et al. [2015]; read-out: Dissociation constant (KD) by ITC; cited from earlier work
Description: The general transcription factor TFIID is essential for RNA polymerase II transcription initiation in eukaryotic cells. This megadalton protein complex, composed of several TATA‐binding‐associated factors (TAFs), is assembled into a functional transcription factor in the nucleus (Thomas and Chiang [2006]). […] The Berger group recently elucidated how an essential TFIID subcomplex consisting of TAF2, TAF8, and TAF10 is assembled in the cytoplasm (Trowitzsch et al. [2015]). […] Trowitzsch et al. originally reported K D value for TAF8 NLS of ~10 μM with 1:1 stoichiometry (Trowitzsch et al. [2015]). […] In c ...

EVKKPKIDE [A1]
Kd (mImpα2 [1]): 13.8 ± 2.31 µM

H-PEKKPKIDE-OH [A3]
Hill Coeff. (mImpα2 [1]): 0.71 ± 0.30
Kd (mImpα2 [1]): 10.6 ± 2.14 µM
T° (mImpα2 [2]): 40.55 °C
∆H°u (T°) (mImpα2 [2]): 94.9 kcal/mol
ΔG°u (25°C) (mImpα2 [2]): 4.3 kcal/mol
ΔG°u (37°C) (mImpα2 [2]): 1.1 kcal/mol
ΔΔG°u (25°C) (mImpα2 [2]): 1.8 kcal/mol
ΔΔG°u (37°C) (mImpα2 [2]): 1.3 kcal/mol

PVKKEKIDE [A4]
Hill Coeff. (mImpα2 [1]): 0.64 ± 0.24
Kd (mImpα2 [1]): 16.7 ± 1.96 µM
T° (mImpα2 [2]): 37.15 °C
∆H°u (T°) (mImpα2 [2]): 87.9 kcal/mol
ΔG°u (25°C) (mImpα2 [2]): 3.2 kcal/mol
ΔG°u (37°C) (mImpα2 [2]): 0.1 kcal/mol
ΔΔG°u (25°C) (mImpα2 [2]): 0.7 kcal/mol
ΔΔG°u (37°C) (mImpα2 [2]): 0.3 kcal/mol
Nuclear localization (fluorescence) (Hela cells): outperformed A3 in promoting nuclear localization

PVKKEKIEE [A2]
Kd (mImpα2 [1]): 15.9 ± 3.1 µM
Soluble in H20 [3]: Yes

PVKKPKIRR [TAF8]
Hill Coeff. (mImpα2 [1]): 3.1 ± 0.39
Kd (mImpα2 [1]): 1.21 ± 0.313 µM
Kd (importin‐α): ~10 µM
T° (mImpα2 [2]): 47.45 °C
∆H°u (T°) (mImpα2 [2]): 170 kcal/mol
ΔG°u (25°C) (mImpα2 [2]): 11.1 kcal/mol
ΔG°u (37°C) (mImpα2 [2]): 5.4 kcal/mol
ΔΔG°u (25°C) (mImpα2 [2]): 8.6 kcal/mol
ΔΔG°u (37°C) (mImpα2 [2]): 5.6 kcal/mol
Soluble in H20 [3]: Yes
